The text below walks through data of patent US9393255B2, “Pharmaceutical compositions of cytidine analogs and methods of use thereof” (Celgene Corporation, priority 2011, dated 2016).

In one data set the test system is higher-risk MDS. As to conditions: Phase III, subcutaneous, subjects with higher-risk MDS; cited from earlier work.
Data set [1] can be described thus: human pharmacokinetics of 5-azacytidine after SC or IV dosing. Format: in vivo.
The nature of another data set: pKa of 5-azacytidine. Format: physicochemical. As to conditions: 25° C. From the text: (§1) Generally at lower temperature a smaller amount of 5-azacytidine may be dissolved in water.
The nature of data set [2]: aqueous solubility of 5-azacytidine. Format: physicochemical. As to conditions: water. As to the method:
In one embodiment, the reconstituted liquid dosage form is allowed to warm to room temperature (e.g., within a period of less than about 30 minutes) before parenteral use. […] In some embodiments, when the dosage form is at room temperature, about one-half of 5-azacytidine is dissolved, with about the other half present as solid in the suspension.
as §1

The nature of data set [3]: cold water reconstitution of Vidaza with refrigerated storage: potency, redispersibility time, appearance (Example F). Format: physicochemical. To be noted: for stability time (not more than 3% loss of potency from Time 0): cold WFI (2-8° C.) reconstitution, refrigerated (2-8° C.) storage. As for the experimental part:
Sterility testing was performed at the end of the study. Stability of azacitidine was defined in this study as not more than 3% loss of potency from Time 0 (e.g., baseline).
Analytical methods and stability testing: The potency of azacitidine was determined by quantitating the sample against an external standard utilizing reverse phase chromatography with UV detection, in accordance with ICH guidelines. The determination of suspension appearance for redispersibility time was performed visually, in accordance with ICH guidelines.
Stability testing of azacitidine was performed by utilizing validated regulatory accepted analytical methods in accordance with ICH guidelines. These studies were conducted at conditions which encompass long-term, intermediate and accelerated storage of the drug product over a period of time.
Materials and methods: Two lots of sterile commercial scale azacitidine drug product, each nearing the end of their expiry period of 48 months, were used for the study. Each lot of drug product was prepared as a homogeneous mixture of lyophilized powder and placed in labeled vials in preparation for reconstitution. Vials from each lot of azacitidine drug product were then reconstituted with 4 mL of refrigerated (2-8° C.) WFI and immediately placed in refrigerated storage (2-8° C.). After refrigerated storage for 16, 18, 20, and 22 hours, reconstituted vials of azacitidine were removed from refrigeration and placed at 25° C. for 30 minutes. Equilibration time to 25° C. for refrigerated azacitidine suspension was determined to be 30 minutes. […] Stability of azacitidine was defined in this study as not more than 3% loss of potency from Time 0 (e.g., baseline). Sterility of the refrigerated drug product was assessed for reconstituted vials stored at 2-8° C. at end of study.

The next data set has as its system MDS, AML, CML, ALL, NHL. As to conditions: treatment of MDS; cited from earlier work.
The nature of data set [4]: stability of 5-azacytidine suspension reconstituted with cold Water for Injection, stored refrigerated or frozen (Example E). The format is physicochemical. As for the experimental part:
The reconstituted suspension of 5-azacytidine was then stored either refrigerated or frozen.
In one experiment, the suspension was stored at a temperature of between about 2° C. and about 8° C. for up to 72 hours, and then warmed to about 25° C. over a period of about 30 minutes. In another experiment, the suspension was stored at a temperature of about −20° C. for up to 7 days, and then thawed and stored refrigerated for up to 48 hours, and then warmed to about 25° C. over a period of about 30 minutes.
The dry lyophilized powder was stored in the vials under normal conditions for about 48 months prior to use in this experiment.
The contents of the vials were reconstituted with cold Water for Injection. Prior to reconstitution, the Water for Injection was stored refrigerated for at least 24 hours. All vials were reconstituted into an opaque, white suspension within 20 seconds.
The vials were stored at conditions described above for a certain time. The contents of all vials were re-dispersed into an opaque, white suspension within 20 seconds of shaking after each storage conditions or time points described in this example.

Data set [5] can be described thus: aqueous degradation kinetics of 5-azacytidine (solution and suspension). Format: physicochemical. As to the method: The aqueous degradation kinetics of 5-azacytidine was evaluated. […] At lower temperatures, the degradation of 5-azacytidine is slower.
Data set [6] is described as follows: cold water reconstitution of Vidaza with frozen storage, Study 2: HPLC assay, redispersion time, appearance (Example G). The format is physicochemical. As to conditions: reconstituted with refrigerated WFI, stored frozen (−20° C.). As to the method:
The study was performed in a similar fashion as Example F, and the cold water reconstituted suspension was then stored under frozen conditions. […] A study to determine the thawing time of the frozen suspensions at 25° C. was also conducted.
Testing was performed using two lots of homogenized drug product. […] The second study analyzed the reconstituted drug product after storage of reconstituted drug product at −20° C. utilizing hold times of 24, 48, and 72 hours followed by a post hold time of 45 minutes at 25° C. to allow for thawing as determined in the first study.
Analytical Methods: The amount of azacitidine and related impurities contained in azacitidine samples was determined utilizing High Performance Liquid Chromatography (HPLC). Two methods were used to complete this testing. […] Reconstitution and redispersibility times were determined in a manner similar to that as described in Example F. Appearance of the suspension was determined visually. […]
An appropriate number of homogenized azacitidine drug product vials were reconstituted with refrigerated WFI as described above, and placed in a freezer (−20° C.). […] After thawing, the contents of the vials were analyzed, for example, by HPLC. […] In addition to the frozen vials, a set of drug product vials were reconstituted and diluted, and immediately analyzed for use as T0 (baseline). […]

The next data set has as its system leukemic mouse model. Nature of the data set: activity and toxicity of degradation products in a leukemic mouse model. Format: in vivo.

Converted amounts (≈) assume the structure as drawn. “Also recorded” adds a separate entry of the source.

Turning to `Nc1ncn([C@@H]2O[C@H](CO)[C@@H](O)[C@H]2O)c(=O)n1` [5-azacytidine, 4-amino-1-β-D-ribofuranosyl-1,3,5-triazin-2(1H)-one], the “survival and time to AML transformation or death” value in the data set on higher-risk MDS is “significantly prolonged survival and time to AML transformation or death”. Besides, the “Cmax for SC dosing” value in data set [1] (SC) is reported as “rapid”. The bioavailability in [1] (in vivo, subcutaneous, SC vs IV, read-out: relative bioavailability of SC dose (relative to IV dose)) is around 90%. In addition, the pKa in the data set “pKa of 5-azacytidine” (higher of the two pKa values) was around 10.2; in the data set “pKa of 5-azacytidine” (lower of the two pKa values), around 2.8. Further, the solubility is around 6.4 mg/mL (≈ 26.2 mM) in [2] (5° C.) and around 14 mg/mL (≈ 57.3 mM) in data set [2] (25° C.). The compound also gave a redispersion time in data set [3] (16, 18, 20 and 22 hr refrigerated storage and 30 minutes equilibration to 25° C.) of 0.3 min. Further, the appearance of suspension result in [3] (16, 18, 20 and 22 hr refrigerated storage and 30 minutes equilibration to 25° C., listed as Azacitidine) is “fine white particles in suspension”; in data set [3] (16, 18, 20 and 22 hr refrigerated storage and 30 minutes equilibration to 25° C., listed as azacitidine), “fine white particles in suspension and the absence of clumps”. Moreover, the figures for the “stability time (not more than 3% loss of potency from Time 0)” value in [3] (listed as Azacitidine) and in [3] (listed as azacitidine) were “about 22 hours” and 22 h, respectively. In data set [3] (cold WFI reconstitution with refrigerated storage, 8 to 22 hours, listed as azacitidine), the “prolongation of stability time versus usual reconstitution” value is “about a threefold prolongation; also recorded: nearly threefold”. The “maximum loss of potency” value in data set [3] (cold water (2-8° C.) reconstitution, refrigerated storage baseline to 22 hr, 30 minutes equilibration to 25° C., each of the two lots) was 2.7%. Further, the “anti-tumor activity in clinical trials” value with MDS, AML, CML, ALL, NHL is recorded as “significant anti-tumor activity”. The “degradation on frozen storage” value in [4] (reconstituted with cold Water for Injection, stored frozen, for at least 7 days) was “no significant degradation”. The Degradation Rate entry in data set [4] (suspension reconstituted with cold Water for Injection, stored refrigerated) was “about 0.12 % w/w per hour”; in data set [5] (Solution, 2° C. to 8° C.) it was 0.7% per hour; in data set [5] (Solution, 25° C.), 2.8% per hour; in data set [5] (Suspension, 2° C. to 8° C.) it was 0.1% per hour; in data set [5] (Suspension, 25° C.), 2.5% per hour. The “stability time under frozen storage” value in data set [6] was “up to 72 hours”.
Consider `Nc1ncn([C@H]2C[C@H](O)[C@@H](CO)O2)c(=O)n1` [5-aza-2′-deoxycytidine], for which the “anti-tumor activity in clinical trials” value in the data set on MDS, AML, CML, ALL, NHL is given as “significant anti-tumor activity”.
On to `N=C(NC=O)NC(=O)N[C@@H]1O[C@H](CO)[C@@H](O)[C@H]1O` [primary degradation product, N-formylguanyribosylurea], for which, in the data set with leukemic mouse model (dosed at about 240 mg/m^2), the “activity relative to 5-azacytidine” value is “about 25%” and the “toxicity relative to 5-azacytidine” value is “about 25%”.
`NC(N)=NC(=O)N[C@@H]1O[C@H](CO)[C@@H](O)[C@H]1O` [secondary degradation product, guanylribosylurea]: in the data set on leukemic mouse model (dosed at 1440 mg/m^2), the activity entry was “neither activity nor toxicity” and the toxicity result is reported as “neither activity nor toxicity”.

By bioavailability is commonly meant the share of a dose that reaches the circulation, judged against a reference dose that is usually intravenous. As a reminder, the pKa is the negative logarithm of the acid dissociation constant. A higher pKa goes with a group that holds its proton tightly. The solubility is how much of the substance goes into solution per volume.
